Test results from US8173387B2, “Method of examining chemical using gene-disrupted strain” (priority 2003, dated 2012).

Tests used:
Type in all cases: cell-based, Saccharomyces cerevisiae
[1] = test system: gene-disrupted strain DEL016 (YCR028C) transformed with a plasmid p-YPL171C; assay: promoter assay (GFP reporter), Example 2; details: GFP fluorescence 4 hours after loading, parent strain BY4743
Method: (§1) In a gene-disrupted strain, a growing rate becomes small so much, or medium components in which the strain can be grown are different in some cases, depending on a disrupted gene. Then, in the present experiment studying a host cell of a promoter assay method, in view of easy comparison with a control experiment, among gene-disrupted strains obtained as the result of Example 1, a few strains which have sensitivity to many chemicals and are grown by the same procedure as that of a parent strain were selected. Selected gene-disrupted strains are 8 strains of DEL000, DEL002, DEL011, DEL014, DEL016, DEL019, DEL022 and DEL025 in Table 7. Further, as a control, a parent strain, BY4743 was used.
(§2) A competent cell of each of a parent strain of a gene-disrupted strain and selected gene-disrupted strains was prepared. This competent cell was transformed using two kinds of prepared plasmids for promoter assay, p-YBR072W (in which GFP was connected understream of a promoter of YBR072W) and p-YPL171C (in which GFP was connected downstream of a promoter of YPL171C).
(§3) The resulting transformant was grown to the steady state by shaking-culturing on a SD medium (histidine, leucine) at 25° C. The transformant in the steady state was diluted 500-fold with the same medium, shaking-cultured at 25° C. for 15 hours and, after it was confirmed that an absorbance at 600 nm was 0.2 to 0.5 as a logarithmic growth phase, chemicals having different concentrations were loaded. After loading of chemicals, fluorescence of cells which had been cultured for 4 hours was measured using a flow cytometer (FITC filter, EPICS XL-MCL, Bechmancoulter), and this was adopted as an expression amount of GFP (green fluorescence protein) which is a marker gene. A fluorescence intensity of 10000 cells was measured with a flow cytometer by one measurement and an average of fluorescence intensities of all cells was obtained, and was adopted as a measured value. Similarly, a fluorescence intensity of a cell to which a chemical had not been loaded was obtained, and results are shown as a fluorescence intensity ratio.

[2] = test system: gene-disrupted strain DEL011 (YGL240W) transformed with a plasmid p-YPL171C; assay: promoter assay (GFP reporter), Example 2; details: GFP fluorescence 4 hours after loading, parent strain BY4743
Method: as §1, §2, §3

[3] = test system: gene-disrupted strain DEL002 (YDR027C) transformed with a plasmid p-YBR072W; assay: promoter assay (GFP reporter), Example 2; details: GFP fluorescence 4 hours after loading, parent strain BY4743
Method: as §1, §2, §3

[4] = test system: gene-disrupted strain DEL019 (YIL036W) transformed with a plasmid p-YBR072W; assay: promoter assay (GFP reporter), Example 2; details: strain printed DEL019025, p-YBR072W, GFP fluorescence 4 hours after loading, parent strain BY4743
Method: as §1, §2, §3

[5] = test system: gene-disrupted strain DEL016 (YCR028C) transformed with a plasmid p-YBR072W; assay: promoter assay (GFP reporter), Example 2; details: GFP fluorescence 4 hours after loading, parent strain BY4743
Method: as §1, §2, §3

[6] = test system: gene-disrupted strain DEL011 (YGL240W) transformed with a plasmid p-YBR072W; assay: promoter assay (GFP reporter), Example 2; details: GFP fluorescence 4 hours after loading, parent strain BY4743
Method: as §1, §2, §3

[7] = test system: gene-disrupted strain DEL025 (YLR311C) transformed with a plasmid p-YBR072W; assay: promoter assay (GFP reporter), Example 2; details: strain printed DEL, p-YBR072W, GFP fluorescence 4 hours after loading, parent strain BY4743
Method: as §1, §2, §3

[8] = test system: gene-disrupted strain DEL014 (YJR104C) transformed with a plasmid p-YBR072W; assay: promoter assay (GFP reporter), Example 2; details: GFP fluorescence 4 hours after loading, parent strain BY4743
Method: as §1, §2, §3

[9] = test system: homozygous diploid of gene-disrupted strain DEL003 (YGL026C) transformed with a plasmid p-YPL171C; assay: promoter assay (GFP reporter), Example 3; details: W303 background
Description: (§4) In order to prepare a gene-disrupted strain transformation cassette, genes having chemical sensitivity; YPR036W(DEL000), YDL151C(DEL001), YGL026C(DEL003), YHR039C-A(DEL006), YKL080W(DEL007), YLR447C(DEL008), YGR006W(DEL012), YGR105W(DRL013), YJR104C(DEL014), YGL206C(DEL018), YIL036W(DEL019), YKL119C(DEL020), YLR226W(DEL022) and YLR311C(DEL025) in Table 7 were selected, and each gene was replaced with a transformation marker such as kanamycin resistance. As primers for performing PCT amplification, a N-terminal side (ORF(upper)) and a C-terminal side (ORF(lower)) in each ORF were used. A length of a sequence (ORF(upper) and ORF(lower)) of a primer homologues with ORF was 46 or 50 bp.
(§5) A W303 a mating type (ATCC200903) and a W303α mating type (ATCC201238) in which the same gene was gene disruption-manipulated were mated by a mating procedure (Yeast Gene Experimental Manual: Maruzen Co., Ltd., p 83-92) to prepare homozygous diploids. Separately, mating of a W303a mating type, and a non-gene-disrupted W303α type was performed by the similar procedure to prepare heterozygous diploids.
(§6) By such the procedure, homozygous diploids of DEL000, DEL001, DEL003, DEL006, DEL007, DEL008, DEL012, DEL013, DEL014, DEL018, DEL019, DEL020, DEL022 and DEL025 in Table 7 were prepared. In addition, heterozygous diploids in which DEL006, DEL014 and DEL 022 were mated with a non-gene-disrupted strain (hereafter, referred to as DEL006 heterozygous diploid, DEL 014 heterozygous diploid, DEL022 heterozygous diploid) and, further, a heterozygous diploid in which DEL000 and DEL014 were mated (hereafter, referred to as DEL000/014 heterozygous diploid) were prepared.
(§7) Competent cells of W303 ATCC201239 (MATa/MATα leu2-3/leu2-3 leu2-112/leu2-112 trp1-1/trp1-1 ura3-1/ura3-1 his 3-11/his3-11 his3-15/his3-15 ade2-1/ade2-1 can1-100/can1-100) which is a parent strain of gene-disrupted strains, and each of prepared gene-disrupted strains were prepared. The competent cells were transformed using two kind of prepared plasmid for promoter assay, p-YBR072W (in which GFP is connected downstream of a promoter of YBR072W) and p-YPL171C (in which GFP is connected downstream of a promoter of YPL171C).
(§8) The resulting transformant was grown to the steady state by shaking-culturing on a SD medium (adenine, hystidine, triptophan, leucine) at 25° C. The transformant in the steady state was diluted 500-fold with the same medium, shaking-cultured at 25° C. for 15 hours and, after it was confirmed that an absorbance at 600 nm was 0.2 to 0.5 as a logarithmic growth phase, chemicals having different concentrations were loaded. After loading of chemicals, fluorescence of cells which had been cultured for 4 hours was measured using a flow cytometer (FITC filter, EPICS XL-MCL, Bechmancoulter), and this was adopted as an expression amount of GFP (green fluorescence protein) which is a marker gene. A fluorescence intensity of 10000 cells was measured with a flow cytometer by one measurement and an average of fluorescence intensities of all cells was obtained, and was adopted as a measured value. Similarly, a fluorescence intensity of a cell to which a chemical had not been loaded was obtained, and results are shown as difference in a fluorescence intensity.

[10] = test system: homozygous diploid of gene-disrupted strain DEL006 (YHR039C-A) transformed with a plasmid p-YPL171C; assay: promoter assay (GFP reporter), Example 3; details: W303 background
Description: as §4, §5, §6, §7, §8

[11] = test system: heterozygous diploid DEL000/014 transformed with a plasmid p-YPL171C; assay: promoter assay (GFP reporter), Example 3; details: heterozygous diploid DEL000/014, p-YPL171C, W303 background
Description: as §4, §5, §6, §7, §8

[12] = test system: homozygous diploid of gene-disrupted strain DEL014 (YJR104C) transformed with a plasmid p-YPL171C; assay: promoter assay (GFP reporter), Example 3; details: W303 background
Description: as §4, §5, §6, §7, §8

[13] = test system: homozygous diploid of gene-disrupted strain DEL022 (YLR226W) transformed with a plasmid p-YPL171C; assay: promoter assay (GFP reporter), Example 3; details: W303 background
Description: as §4, §5, §6, §7, §8

[14] = test system: homozygous diploid of gene-disrupted strain DEL008 (YLR447C) transformed with a plasmid p-YPL171C; assay: promoter assay (GFP reporter), Example 3; details: W303 background
Description: as §4, §5, §6, §7, §8

[15] = test system: homozygous diploid of gene-disrupted strain DEL001 (YDL151C) transformed with a plasmid p-YPL171C; assay: promoter assay (GFP reporter), Example 3; details: W303 background
Description: as §4, §5, §6, §7, §8

[16] = test system: heterozygous diploid of gene-disrupted strain DEL006 (YHR039C-A) transformed with a plasmid p-YPL171C; assay: promoter assay (GFP reporter), Example 3; details: W303 background
Description: as §4, §5, §6, §7, §8

[17] = test system: homozygous diploid of gene-disrupted strain DEL007 (YKL080W) transformed with a plasmid p-YPL171C; assay: promoter assay (GFP reporter), Example 3; details: W303 background
Description: as §4, §5, §6, §7, §8

[18] = test system: homozygous diploid of gene-disrupted strain DEL020 (YKL119C) transformed with a plasmid p-YPL171C; assay: promoter assay (GFP reporter), Example 3; details: DEL0020 homozygous diploid, W303 background
Description: as §4, §5, §6, §7, §8

[Cl][Hg][Cl] [mercuric chloride]
concentration at which the strain responded, as fraction of a concentration of a parent strain [1]: 1/3 | concentration at which the strain responded, as fraction of a concentration of a parent strain [2]: 1/10

[Cl][Cd][Cl] [cadmium chloride]
concentration at which the strain responded, as fraction of a concentration of a parent strain [3]: 1/3 | concentration at which the strain responded, as fraction of a concentration of a parent strain [4]: 1/3 | concentration at which the strain responded, as fraction of a concentration of a parent strain [5]: 1/3 | concentration at which the strain responded, as fraction of a concentration of a parent strain [6]: 1/3 | concentration at which the strain responded, as fraction of a concentration of a parent strain [7]: 1/3

O=[As][O-].[Na+] [sodium metaarsenite]
concentration at which the strain responded, as fraction of a concentration of a parent strain [8]: 1/3000 | concentration at which the strain responded, as fraction of a concentration of a parent strain [5]: 1/3 | concentration at which the strain responded, as fraction of a concentration of a parent strain [6]: 1/10 | concentration at which the strain responded, as fraction of a concentration of a parent strain [2]: 1/3 | concentration at which sensitivity is shown, as fraction of a concentration of a gene-non-disrupted strain [9]: 1/3 | concentration at which sensitivity is shown, as fraction of a concentration of a gene-non-disrupted strain [10]: 1/30 | concentration at which sensitivity is shown, as fraction of a concentration of a gene-non-disrupted strain [11]: 1/30 | concentration at which sensitivity is shown, as fraction of a concentration of a gene-non-disrupted strain [12]: 1/30 | concentration at which sensitivity is shown, as fraction of a concentration of a gene-non-disrupted strain [13]: 1/3 | concentration at which sensitivity is shown, as fraction of a concentration of a gene-non-disrupted strain [14]: 1/3

CN(C)C(=S)SSC(=S)N(C)C [thiuram]
concentration at which sensitivity is shown, as fraction of a concentration of a gene-non-disrupted strain [10]: 1/10 | concentration at which sensitivity is shown, as fraction of a concentration of a gene-non-disrupted strain [15]: 1/3 | concentration at which sensitivity is shown, as fraction of a concentration of a gene-non-disrupted strain [16]: 1/10 | concentration at which sensitivity is shown, as fraction of a concentration of a gene-non-disrupted strain [17]: 1/1000 | concentration at which sensitivity is shown, as fraction of a concentration of a gene-non-disrupted strain [18]: 1/3 | concentration at which sensitivity is shown, as fraction of a concentration of a gene-non-disrupted strain [13]: 1/1000
